Assay results taken from the supplement of paper PMC10307832.

Experiments:
Experiment in all cases: relative viability (nuclei count vs DMSO), 5 days (fraction); higher = more cells survive
Vorinostat + Luminespib = compound: O=C(CCCCCCC(=O)Nc1ccccc1)NO [Vorinostat] + CCNC(=O)c1noc(-c2cc(C(C)C)c(O)cc2O)c1-c1ccc(CN2CCOCC2)cc1 [Luminespib] (partner 0.01 µM)
Summary of the method: (§1)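 Cells from lung cancer lines were seeded into 1536-well plates and, one day later, dosed by pin tool. Treatments were either a single drug or a fixed dose of an anchor drug with five library-drug doses (not always all listed) in √10 steps. After 5 days, nuclei were stained in a one-step fixation (final 0.05% Triton X-100, 1% formaldehyde, 1 ug/ml Hoechst) and counted on 4× images, and relative viability is the treated-to-vehicle nuclei ratio, as the median of duplicate plates.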

Vorinostat + OSI-027 = compound: O=C(CCCCCCC(=O)Nc1ccccc1)NO [Vorinostat] + COc1cccc2cc(-c3nc([C@H]4CC[C@H](C(=O)O)CC4)n4ncnc(N)c34)[nH]c12 [OSI-027] (partner 0.5 µM)
Summary of the method: as §1

Vorinostat + Pictilisib = compound: O=C(CCCCCCC(=O)Nc1ccccc1)NO [Vorinostat] + CS(=O)(=O)N1CCN(Cc2cc3nc(-c4cccc5[nH]ncc45)nc(N4CCOCC4)c3s2)CC1 [Pictilisib] (partner 1 µM)
Summary of the method: as §1

Vorinostat + Phenformin = compound: O=C(CCCCCCC(=O)Nc1ccccc1)NO [Vorinostat] + N=C(N)NC(=N)NCCc1ccccc1 [Phenformin] (partner 250 µM)
Summary of the method: as §1

Vorinostat + Olaparib = compound: O=C(CCCCCCC(=O)Nc1ccccc1)NO [Vorinostat] + O=C(c1cc(Cc2n[nH]c(=O)c3ccccc23)ccc1F)N1CCN(C(=O)C2CC2)CC1 [Olaparib] (partner 8 µM)
Summary of the method: as §1

Cell Line	relative viability (Vorinostat + Luminespib; first compound 0.253 µM)	relative viability (Vorinostat + Luminespib; first compound 0.8 µM)	relative viability (Vorinostat + Luminespib; first compound 2.53 µM)	relative viability (Vorinostat + Luminespib; first compound 8 µM)	relative viability (Vorinostat + OSI-027; first compound 0.253 µM)	relative viability (Vorinostat + OSI-027; first compound 0.8 µM)	relative viability (Vorinostat + OSI-027; first compound 2.53 µM)	relative viability (Vorinostat + OSI-027; first compound 8 µM)	relative viability (Vorinostat + Pictilisib; first compound 0.253 µM)	relative viability (Vorinostat + Pictilisib; first compound 0.8 µM)	relative viability (Vorinostat + Pictilisib; first compound 2.53 µM)	relative viability (Vorinostat + Pictilisib; first compound 8 µM)	relative viability (Vorinostat + Phenformin; first compound 0.253 µM)	relative viability (Vorinostat + Phenformin; first compound 0.8 µM)	relative viability (Vorinostat + Phenformin; first compound 2.53 µM)	relative viability (Vorinostat + Phenformin; first compound 8 µM)	relative viability (Vorinostat + Olaparib; first compound 0.253 µM)	relative viability (Vorinostat + Olaparib; first compound 0.8 µM)	relative viability (Vorinostat + Olaparib; first compound 2.53 µM)	relative viability (Vorinostat + Olaparib; first compound 8 µM)
COR-L23	0.64	0.305	0.107	0.0643	0.842	0.396	0.151	0.0835	0.728	0.451	0.0944	0.0511	0.368	0.322	0.107	0.0712	0.301	0.246	0.0921	0.0666
CAL-12T	0.555	0.464	0.383	0.134	0.814	0.746	0.292	0.0987	0.48	0.435	0.209	0.149	0.685	0.562	0.312	0.0876	0.82	0.824	0.532	0.138
NCI-H1975	0.286	0.202	0.147	0.16	0.783	0.609	0.231	0.121	0.321	0.242	0.0978	0.118	0.431	0.381	0.197	0.127	0.9	0.593	0.249	0.125
NCI-H1650	0.2	0.178	0.171	0.184	0.581	0.36	0.167	0.145	0.542	0.283	0.181	0.124	0.412	0.393	0.164	0.14	0.737	0.62	0.316	0.16
LC-2-ad	1.11	0.918	0.367	0.208	0.81	0.508	0.206	0.159	0.568	0.292	0.0981	0.0042	0.568	0.461	0.221	0.133	0.706	0.541	0.267	0.19
HARA	0.693	0.689	0.118	0.053	0.64	0.213	0.155	0.0573	0.483	0.447	0.132	0.102	0.443	0.364	0.231	0.0679	0.966	0.454	0.0979	0.0743
HCC-827	0.655	0.641	0.257	0.168	0.923	0.853	0.743	0.259	1.1	1.08	0.732	0.411	0.455	0.521	0.453	0.239	0.776	0.632	0.344	0.15
NCI-H2085	0.447	0.411	0.317	0.19	0.722	0.463	0.415	0.205	0.53	0.462	0.378	0.303	0.781	0.532	0.46	0.223	0.803	0.79	0.442	0.219
NCI-H2405	0.995	1.03	0.596	0.164	0.695	0.778	0.463	0.103	0.478	0.542	0.153	0.0468	0.495	0.404	0.279	0.0401	1.02	0.888	0.313	0.0962
PC-14	0.128	0.143	0.113	0.133	1.13	0.832	0.0624	0.0451	0.959	0.438	0.0673	0.0418	0.713	0.561	0.131	0.0278	0.351	0.197	0.064	0.0386
NCI-H358	0.429	0.521	0.308	0.126	1.14	0.793	0.189	0.0874	0.372	0.468	0.17	0.172	0.5	0.47	0.115	0.082	0.722	0.609	0.227	0.0636
NCI-H1755	0.442	0.661	0.572	0.166	0.734	0.681	0.384	0.185	0.47	0.368	0.173	0.138	0.646	0.579	0.413	0.204	0.953	0.86	0.307	0.205
NCI-H2087	0.226	0.148	0.157	0.127	0.746	0.417	0.106	0.063	1.32	0.634	0.275	0.133	0.449	0.331	0.0993	0.0935	0.717	0.52	0.13	0.069
NCI-H1666	1.16	0.894	0.477	0.339	0.772	0.678	0.383	0.335	0.363	0.283	0.206	0.128	0.591	0.474	0.398	0.306	0.669	0.755	0.512	0.475
201T	1.1	1.09	0.82	0.281	0.837	0.756	0.322	0.118	0.741	0.605	0.522	0.313	0.478	0.446	0.406	0.236	0.852	0.814	0.523	0.255
NCI-H1944	0.716	0.573	0.304	0.147	0.413	0.287	0.226	0.165	0.338	0.308	0.27	0.18	0.203	0.19	0.146	0.123	0.367	0.33	0.166	0.114

Cell Line	relative viability (Vorinostat + Luminespib; first compound 0.253 µM)	relative viability (Vorinostat + Luminespib; first compound 0.8 µM)	relative viability (Vorinostat + Luminespib; first compound 2.53 µM)	relative viability (Vorinostat + Luminespib; first compound 8 µM)	relative viability (Vorinostat + OSI-027; first compound 0.253 µM)	relative viability (Vorinostat + OSI-027; first compound 0.8 µM)	relative viability (Vorinostat + OSI-027; first compound 2.53 µM)	relative viability (Vorinostat + OSI-027; first compound 8 µM)	relative viability (Vorinostat + Pictilisib; first compound 0.253 µM)	relative viability (Vorinostat + Pictilisib; first compound 0.8 µM)	relative viability (Vorinostat + Pictilisib; first compound 2.53 µM)	relative viability (Vorinostat + Pictilisib; first compound 8 µM)	relative viability (Vorinostat + Phenformin; first compound 0.253 µM)	relative viability (Vorinostat + Phenformin; first compound 0.8 µM)	relative viability (Vorinostat + Phenformin; first compound 2.53 µM)	relative viability (Vorinostat + Phenformin; first compound 8 µM)	relative viability (Vorinostat + Olaparib; first compound 0.253 µM)	relative viability (Vorinostat + Olaparib; first compound 0.8 µM)	relative viability (Vorinostat + Olaparib; first compound 2.53 µM)	relative viability (Vorinostat + Olaparib; first compound 8 µM)
NCI-H2228	0.138	0.172	0.168	0.113	0.767	0.452	0.203	0.0986	0.649	0.223	0.142	0.138	0.388	0.27	0.136	0.102	0.501	0.499	0.223	0.124
NCI-H1395	0.912	0.829	0.643	0.346	0.647	0.597	0.418	0.352	0.637	0.619	0.427	0.362	0.475	0.501	0.401	0.341	0.513	0.465	0.436	0.318
PC-3 [JPC-3]	0.746	0.801	0.282	0.261	0.68	0.727	0.378	0.175	0.779	0.582	0.423	0.309	0.471	0.465	0.436	0.279	1.13	1.05	0.379	0.326
NCI-H2170	0.894	0.692	0.577	0.171	0.78	0.759	0.569	0.144	0.348	0.235	0.209	0.185	0.481	0.394	0.384	0.164	0.632	0.554	0.146	0.0982
LCLC-97TM1	0.819	0.704	0.299	0.122	0.444	0.582	0.249	0.112		0.151	0.168	0.0934	0.489	0.421	0.253	0.144	0.455	0.429	0.19	0.0482
HOP-62	0.942	0.904	0.396	0.103	0.985	0.649	0.378	0.0983	0.966	0.205	0.203	0.079	0.815	0.592	0.319	0.114	0.468	0.35	0.16	0.0785
LXF-289	0.763	0.596	0.299	0.0958	0.969	0.761	0.407	0.0564	0.913	0.704	0.272	0.088	0.595	0.558	0.306	0.0606	1.11	1.02	0.148	0.0576
NCI-H1792	0.533	0.388	0.295	0.144	0.776	0.676	0.511	0.1	0.283	0.179	0.0803	0.0579	0.269	0.228	0.0757	0.0593	0.235	0.218	0.0385	0.0192
NCI-H647	0.0999	0.146	0.222	0.0619	0.777	0.526	0.19	0.0491	0.454	0.526	0.153	0.0703	0.594	0.208	0.0803	0.0343	0.694	0.201	0.0618	0.0259
LK-2	0.207	0.171	0.152	0.132	0.196	0.169	0.117	0.103	0.48	0.379	0.211	0.132	0.778	0.321	0.197	0.126	0.705	0.62	0.309	0.0471
NCI-H650	0.773	0.808	0.201	0.155	0.514	0.458	0.175	0.129	0.902	0.491	0.183	0.16	0.483	0.375	0.256	0.14	0.375	0.275	0.121	0.129
NCI-H1437	1.14	1.07	0.712	0.187	0.934	0.467	0.197	0.146	0.466	0.167	0.107	0.088	0.302	0.246	0.168	0.178	0.625	0.466	0.199	0.16
NCI-H1915	0.792	0.761	0.18	0.0892	0.632	0.5	0.205	0.152	1.17	0.751	0.426	0.0969	0.38	0.341	0.181	0.0949	0.231	0.175	0.113	0.0841
UMC-11	1.03	0.566	0.149	0.108	0.441	0.263	0.135	0.0952	0.975	0.29	0.0923	0.0756	0.325	0.199	0.123	0.115	0.374	0.235	0.0709	0.064
NCI-H661	0.905	0.725	0.34	0.298	0.79	0.665	0.297	0.245	0.557	0.696	0.462	0.214	0.38	0.3	0.213	0.268	0.767	0.569	0.392	0.323
HCC-44	1.23	0.804	0.205	0.141	0.611	0.281	0.103	0.254	0.603	0.411	0.308	0.0904	0.147	0.108	0.0733	0.0646	1.04	1.05	0.658	0.317
